Source: ChEMBL document CHEMBL1141067, “Dipyridyl amines: potent metabotropic glutamate subtype 5 receptor antagonists” (Bioorg Med Chem Lett, 2005)
Blank lines part the entries; values can stand above or below the molecule they belong to.

Assays:
[1] = biological target: T1, Metabotropic glutamate receptor 5 (Homo sapiens, UniProt P41594); assay: In vitro potency against calcium flux in Ltk cells expressing human recombinant metabotropic glutamate receptor 5 using fluorescence detection; format: cell-based
T1 sequence (P41594 whole entry): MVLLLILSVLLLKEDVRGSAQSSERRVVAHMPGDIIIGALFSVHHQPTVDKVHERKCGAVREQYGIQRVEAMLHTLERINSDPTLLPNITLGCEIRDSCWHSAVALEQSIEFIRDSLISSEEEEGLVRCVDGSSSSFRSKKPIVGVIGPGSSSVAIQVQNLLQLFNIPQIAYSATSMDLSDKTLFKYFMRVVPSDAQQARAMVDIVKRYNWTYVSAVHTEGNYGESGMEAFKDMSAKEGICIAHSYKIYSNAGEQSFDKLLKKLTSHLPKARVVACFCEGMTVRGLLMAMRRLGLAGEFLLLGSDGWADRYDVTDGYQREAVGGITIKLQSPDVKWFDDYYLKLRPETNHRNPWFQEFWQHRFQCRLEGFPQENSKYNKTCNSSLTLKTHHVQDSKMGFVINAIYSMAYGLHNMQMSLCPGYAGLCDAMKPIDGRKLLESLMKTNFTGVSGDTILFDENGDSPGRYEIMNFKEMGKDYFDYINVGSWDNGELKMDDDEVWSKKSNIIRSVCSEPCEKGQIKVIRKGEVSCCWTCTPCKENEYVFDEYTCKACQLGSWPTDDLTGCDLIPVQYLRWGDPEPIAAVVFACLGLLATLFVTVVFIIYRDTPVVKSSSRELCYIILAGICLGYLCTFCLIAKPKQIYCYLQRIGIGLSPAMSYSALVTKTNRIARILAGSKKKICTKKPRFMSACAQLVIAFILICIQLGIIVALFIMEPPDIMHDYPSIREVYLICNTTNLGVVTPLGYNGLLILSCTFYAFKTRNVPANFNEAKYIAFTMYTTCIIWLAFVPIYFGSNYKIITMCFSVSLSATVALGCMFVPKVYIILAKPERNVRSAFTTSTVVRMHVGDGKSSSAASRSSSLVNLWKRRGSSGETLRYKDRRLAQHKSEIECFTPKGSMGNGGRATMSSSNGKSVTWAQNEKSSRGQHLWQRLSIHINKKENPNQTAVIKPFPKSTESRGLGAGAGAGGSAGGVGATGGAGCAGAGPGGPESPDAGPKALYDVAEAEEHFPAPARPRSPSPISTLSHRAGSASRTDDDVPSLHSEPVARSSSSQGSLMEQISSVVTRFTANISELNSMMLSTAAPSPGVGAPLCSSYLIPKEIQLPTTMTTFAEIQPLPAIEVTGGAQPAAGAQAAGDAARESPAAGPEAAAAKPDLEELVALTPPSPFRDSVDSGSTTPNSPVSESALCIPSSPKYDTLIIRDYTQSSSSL

[2] = Bioavailability (10 mg/kg, p.o.) in Sprague Dawley rats; format: ADME, organism-based; conditions: rat, in vivo, po
[3] = Half-life (2 mg/kg, i.v.) was determined in Sprague-Dawley rats; format: ADME, organism-based; conditions: rat, in vivo, iv
[4] = Plasma clearance (2 mg/kg, i.v.) was determined in Sprague-Dawley rats; format: ADME, organism-based; conditions: rat, iv, read-out: Clp
[5] = Volume of distribution (2 mg/kg, iv.) was determined in Sprague Dawley rats; not determined; format: ADME, organism-based; conditions: rat, in vivo
Rattus norvegicus = assay: In vivo receptor occupancy was determined in rats following intravenous dosage at 10 mg/kg; format: functional
[6] = biological target: T1, Metabotropic glutamate receptor 5; assay: In vitro potency against calcium flux in Ltk cells expressing human recombinant metabotropic glutamate receptor 5 using fluorescence detection; not active at 10 uM; format: cell-based
[7] = Volume of distribution (2 mg/kg, iv.) was determined in Sprague Dawley rats; format: ADME, organism-based; conditions: rat, in vivo
[8] = Bioavailability (10 mg/kg, p.o.) was determined in Sprague Dawley rats; format: ADME, organism-based; conditions: rat, in vivo, po

IC50 [1]: 12 nM | bioavailability [2]: 38% | half-life [3]: 1 h | clearance [4]: 50 mL/min/kg
SMILES: CCOc1cc(-c2cccnc2)cnc1Nc1cccc(C)n1

IC50 [1]: 36 nM | bioavailability [2]: 67% | half-life [3]: 0.6 h | Vd [5]: 2.3 L/kg | clearance [4]: 79 mL/min/kg
SMILES: CCOc1cc(-c2cncnc2)cnc1Nc1cccc(C)n1
Receptor occupancy (Rattus norvegicus): 79%

IC50 [6]: Not Active
SMILES: Cc1cccc(Nc2ncccc2C)n1

IC50 [1]: 138 nM | bioavailability [2]: 16% | half-life [3]: 0.8 h | Vd [7]: 2.9 L/kg | clearance [4]: 78 mL/min/kg
SMILES: CCOc1cccnc1Nc1ccccn1

IC50 [1]: 1900 nM
SMILES: CCOc1cccnc1Nc1cccc(C(F)(F)F)n1

IC50 [1]: 556 nM
SMILES: CCOc1cccnc1Nc1cccc(OC)n1

IC50 [1]: 6200 nM
SMILES: CCOc1cccnc1Nc1cccc(C(=O)OC)n1

IC50 [6]: Not Active
SMILES: Cc1cccc(Nc2ncccc2O)n1

IC50 [1]: 458 nM
SMILES: COc1cccnc1Nc1cccc(C)n1

IC50 [6]: Not Active
SMILES: CCOc1ncccc1Nc1cccc(C)n1

IC50 [6]: Not Active
SMILES: Cc1cccc(Nc2ncccc2C#N)n1

IC50 [1]: 45 nM | bioavailability [2]: 8% | half-life [3]: 0.7 h | Vd [5]: 4.7 L/kg | clearance [4]: 105 mL/min/kg
SMILES: CCOc1cc(-c2cnccc2C)cnc1Nc1cccc(C)n1

IC50 [1]: 870 nM
SMILES: Cc1cccc(Nc2ncccc2OCc2ccccc2)n1

IC50 [1]: 1600 nM
SMILES: CCCOc1cccnc1Nc1cccc(C)n1

IC50 [6]: Not Active
SMILES: Cc1cccc(Nc2ncccc2-c2ccccc2)n1

IC50 [1]: 46 nM | bioavailability [2]: 13% | half-life [3]: 1.6 h | Vd [7]: 7 L/kg | clearance [4]: 90 mL/min/kg
SMILES: CCOc1cc(C#N)cnc1Nc1cccc(C)n1

IC50 [1]: 513 nM
SMILES: CCOc1cc(-c2ccc(C)cc2)cnc1Nc1cccc(C)n1

IC50 [1]: 80 nM
SMILES: CCOc1cc(-c2cccnc2C#N)cnc1Nc1cccc(C)n1

IC50 [1]: 119 nM
SMILES: CCOc1cc(C)cnc1Nc1cccc(C)n1

IC50 [6]: Not Active
SMILES: CCOc1ccc(C)nc1Nc1cccc(C)n1

IC50 [1]: 37 nM
SMILES: CCOc1cc(-c2ccccc2C#N)cnc1Nc1cccc(C)n1

IC50 [1]: 790 nM
SMILES: CSc1cccnc1Nc1cccc(C)n1

IC50 [6]: Not Active
SMILES: COC(=O)c1cccnc1Nc1cccc(C)n1

IC50 [1]: 243 nM
SMILES: CCOc1cc(-c2ccsn2)cnc1Nc1cccc(C)n1

IC50 [6]: Not Active
SMILES: CCOc1ccccc1Nc1cccc(C)n1

IC50 [1]: 17 nM
SMILES: CCOc1cc(Cl)cnc1Nc1cccc(C)n1

IC50 [1]: 3000 nM
SMILES: CCNc1cccnc1Nc1cccc(C)n1

IC50 [1]: 394 nM | half-life [3]: 1 h | clearance [4]: 320 mL/min/kg
SMILES: CCCc1cccnc1Nc1cccc(C)n1

IC50 [1]: 2700 nM
SMILES: CCOc1c(C)ccnc1Nc1cccc(C)n1

IC50 [1]: 1000 nM
SMILES: Cc1cccc(Nc2ncccc2OC(C)C)n1

IC50 [1]: 267 nM
SMILES: CCOc1cc(-c2ccccc2)cnc1Nc1cccc(C)n1

IC50 [1]: 18 nM | half-life [3]: 1.2 h | Vd [5]: 3.7 L/kg | clearance [4]: 52 mL/min/kg
SMILES: CCOc1cc(Oc2cccnc2)cnc1Nc1cccc(C)n1
Receptor occupancy (Rattus norvegicus): 82%

IC50 [1]: 126 nM | bioavailability [2]: 19% | half-life [3]: 0.5 h | Vd [7]: 3 L/kg | clearance [4]: 93 mL/min/kg
SMILES: CCOc1cc(-c2cccc(F)c2)cnc1Nc1cccc(C)n1

IC50 [1]: 47 nM
SMILES: CCOc1cc(Br)cnc1Nc1cccc(C)n1

IC50 [6]: Not Active
SMILES: Cc1cccc(Nc2ncccc2-c2cccnc2)n1

IC50 [1]: 193 nM | bioavailability [2]: 0% | half-life [3]: 1 h | Vd [7]: 6.1 L/kg | clearance [4]: 124 mL/min/kg
SMILES: CCOc1cc(-c2ccccn2)cnc1Nc1cccc(C)n1

IC50 [1]: 497 nM | half-life [3]: 1 h | clearance [4]: 102 mL/min/kg
SMILES: CCOc1nccnc1Nc1cccc(C)n1

IC50 [1]: 40 nM | bioavailability [8]: 11% | half-life [3]: 2.1 h | Vd [7]: 1.2 L/kg | clearance [4]: 16 mL/min/kg
SMILES: CCOc1cccnc1Nc1cccc(C)n1

IC50 [6]: Not Active
SMILES: COc1cccc(F)c1Nc1cccc(C)n1
